Entries after “also recorded” stand apart in the source; their conditions may differ.
Key:
Tcon = assay: in vitro Treg suppression, Tcon type not specified; type: cell-based, mouse
Procedure: (§1) Lethally irradiated BALB/c mice were given 10e6 C57BL/6 bone marrow only (BM), or BM with 2e6 CD4+25−/CD8+25− Tcon cells without (BM+T) or with 1e6 Tregs treated with either DMSO (DMSO) or 10 μM AEB071 (AEB071) for 30 minutes. […] Tregs were treated with DMSO or AEB071 as above, and activated overnight with plate bound anti-CD3/28 and IL-2. […] […] Tregs were treated with DMSO or AEB071 and activated as above. […] Tregs were transfected with vimentin siRNA (vim) or control (GFP), and activated for 36 hours. CFSE-labeled Tcon were mixed with T-cell depleted splenocytes and soluble anti-CD3 mAb. Treg:Tcon ratios of 1:1-1:27 were plated and CFSE dilution assessed after 3 days.
On day 3 after transfection, CD4/8 Tcon and T-cell depleted splenoctyes were isolated for a suppression assay. CD4/CD8 Tcon were purified from spleen of CD45.1 C57BL/6 mice using negative selection with eBioscience biotinylated Ab (anti-CD19, B220, NK1.1, gamma-delta TCR) and StemCell technologies streptavidin RapidSphere technology. Once isolated, Tcon were labeled with CFSE (2.5 μM) for 5 minutes at room temperature with constant agitation.
Responder Tcon were provided with 0.75 μg/mL soluble anti-CD3 mAb. […]

[1] = tested on: in vitro-expanded human Tregs; assay: phosphoproteomic screen with human Treg cells; type: cell-based
Procedure: Utilizing mass spectroscopy, a total of 12,452 phosphorylation sites were quantified from human Tregs. In order to determine significant differences between DMSO-treated and AEB071-treated Tregs, two experiments were performed concurrently: • Forward experiment: This experiment utilized heavy isotope-labeled Tregs treated with AEB071 and medium isotope-labeled Tregs treated with DMSO. • Reverse experiment: medium isotope-labeled Tregs treated with AEB071 and heavy isotope-labeled Tregs treated with DMSO.
After processing the raw spectra with Max Quant software, the positively identified phosphopeptides were analyzed using Persus software. Contaminating peptides and reverse database hits were filtered out and the peptide intensity values and normalized H/M ratios were log 2 transformed. The significances of the individual H/M ratios calculated using the Significance B test with a false discovery rate of 0.05 for the forward and reverse experiment separately.
Relying only on the Sig B test, the overlap between the two data sets was low with only 15% overlap. In order to improve the overlap between the two data sets, the data was filtered based on fold change (<1.5), consistency of ratios, phospho site localization probability (<75%), and the MaxQuant score (<75). By filtering the results, the overlap improved to 60%.

Tcon-APC interactions = assay: multi-photon microscopy on D4 after transplant; type: in vivo, mouse; conditions: AEB071-treated Tregs vs DMSO
Procedure: (§2) As Tregs exert much of their protective effect against GVHD early in the course of the disease, proliferation of GVHD-causing conventional T-cells (Tcon) on D4 after transplant was analyzed. […] Multi-photon microscopy on D4 was performed after transplant using TEα-GFP Tcon, CD11c-eYFP antigen presenting cells (APCs) and wild-type Tregs.

Tregs [2] = assay: Treg metabolic activity (OCR, ECAR, BoDipyC1-C12 uptake); type: cell-based, mouse; conditions: AEB071 vs DMSO, after activation
Procedure: as §1
FIG. 9C is a graph showing basal and maximal oxygen consumption rate (OCR) and extracellular acidification rate (ECAR) measured after transfection. Tregs were transfected with either control (non-targeting) or vimentin siRNA. […] Bars show mean±SEM. Survival differences analyzed by log-rank test. *, p<0.05; **, P<0.01; ***, P<0.0001; ****, p<0.00001 (Student's t-tests or one-way ANOVA with Tukey's post-test).

splenic Tregs = assay: flow cytometry of Tregs from acute GVHD recipients; type: in vivo, mouse; conditions: AEB071 vs DMSO treated Tregs isolated from acute GVHD mice
Tregs [3] = assay: flow cytometry of marker expression in activated Tregs; type: cell-based, mouse
Procedure: as §1
Bars show mean±SEM. *, p<0.05; **, P<0.01; ***, P<0.0001; ****, p<0.00001 (Student's t-tests or one-way ANOVA with Tukey's post-test).
Ratios of 0:1, 1:1, 1:3, 1:9 and 1:27 Treg:Teff were made. Four replicates of each ratio were made and plated in a 96-well, round bottom plate. After 3 days in culture, the cells from each well were harvested, washed with PBS and then stained with antibodies for flow cytometry analysis of CFSE dilution (proliferation) of CD4 and CD8 Tcon. The antibodies used were as follows: CD4-BV510, CD8-PE-ef610, CD25-BV605, Nrp1-PerCP-ef710, Lag3-APC, Fixable viability dye-APC-ef780, Foxp3-PE-Cy7, and Vimentin-PE.

acute GVHD = assay: mouse MHC class I/II disparate acute GVHD model; type: in vivo
Procedure: as §1
(§3) FIG. 9A is a graph showing the percent survival of recipients. Tregs were transfected with either control (non-targeting) or vimentin siRNA. Recipient mice were given BM alone, BM+Tcon (BM+T), or BM+Tcon+Tregs; Tregs pre-treated with control or vimentin siRNA. […] Bars show mean±SEM. Survival differences analyzed by log-rank test. *, p<0.05; **, P<0.01; ***, P<0.0001; ****, p<0.00001 (Student's t-tests or one-way ANOVA with Tukey's post-test).
as §3, with “9B” for “9A”, “clinical GVHD scores (0=no disease, 10=most severe disease) for” for “percent survival of”
as §2, with “Tregs. […]” for “Tregs.”

[4] = tested on: phosphorylated proteins in activated Tregs; assay: flow cytometry analysis of phosphorylated proteins (phosphoflow) in Tregs; type: cell-based, mouse
Procedure: In addition, the mTORC2-specific phosphorylation site on Akt, serine 473, was reduced, whereas the […] phosphorylation site, threonine 308, was unaltered. […] As both mTORC1 and mTORC2 are involved in T-cell metabolism, the effect of AEB071 treatment on Treg oxygen consumption rate (OCR) was investigated. […] Increased OCR has been associated with increased Treg function. […]
Since PKC-θ inhibition modulated Treg metabolism and mTORC2 function, experiments were performed to determine whether vimentin siRNA might have a similar effect. […] Since mTORC2 signaling was reduced after PKC-θ inhibition, it was hypothesized that mTORC2 activity also could be reduced after treatment with vimentin siRNA.

PKC-θ/vimentin = molecular target: T1, PKC-θ/vimentin (Mus musculus, UniProt Q02111); assay: confocal microscopy of PKC-θ and vimentin staining in activated Tregs; type: cell-based
T1 construct: endogenous in cells
Procedure: FIG. 8A are photographs of the results of experiments in which Tregs were pre-treated with DMSO (control), AEB071, or vimentin siRNA, then activated. PKC-θ and vimentin staining were analyzed by confocal microscopy.
Since PKC-θ localization and function appear to be linked, experiments were performed to understand whether PKC-θ inhibition modulated PKC-θ localization. Consistent with previous work, PKC-θ accumulated at the distal pole of control Tregs after 5 minutes of anti-CD3/CD28 mAb activation (FIG. 8A, top).

[5] = 10 μM AEB071 30 minutes vs DMSO, activated overnight with anti-CD3/28 and IL-2
[6] = PKC-θ inhibition (AEB071), activated Tregs

T1 sequence (Q02111 whole entry): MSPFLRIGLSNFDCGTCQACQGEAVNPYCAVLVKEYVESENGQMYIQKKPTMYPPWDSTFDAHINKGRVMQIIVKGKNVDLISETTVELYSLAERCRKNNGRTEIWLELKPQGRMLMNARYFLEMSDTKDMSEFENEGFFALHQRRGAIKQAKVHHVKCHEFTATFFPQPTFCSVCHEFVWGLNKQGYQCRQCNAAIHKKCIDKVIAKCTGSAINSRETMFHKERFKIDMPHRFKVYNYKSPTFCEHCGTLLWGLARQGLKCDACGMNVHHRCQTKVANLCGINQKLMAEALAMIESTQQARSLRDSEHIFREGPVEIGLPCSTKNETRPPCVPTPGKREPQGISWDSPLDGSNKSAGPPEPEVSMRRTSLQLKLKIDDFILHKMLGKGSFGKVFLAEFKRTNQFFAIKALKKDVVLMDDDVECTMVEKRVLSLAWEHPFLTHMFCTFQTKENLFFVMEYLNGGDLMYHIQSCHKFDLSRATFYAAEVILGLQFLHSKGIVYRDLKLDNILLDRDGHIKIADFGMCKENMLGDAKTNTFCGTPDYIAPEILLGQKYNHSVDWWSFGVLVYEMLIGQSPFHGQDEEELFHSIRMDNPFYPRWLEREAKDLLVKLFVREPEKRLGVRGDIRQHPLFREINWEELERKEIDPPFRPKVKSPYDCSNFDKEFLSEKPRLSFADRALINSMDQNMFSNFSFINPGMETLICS

## CN1CCN(c2nc(C3=C(c4c[nH]c5ccccc45)C(=O)NC3=O)c3ccccc3n2)CC1 [AEB071]
Tcon; AEB071 added to vimentin siRNA transfected Tregs
  Treg function after AEB071-treatment of vimentin siRNA transfected Tregs: did not further augment
Tcon; in vitro trans-well suppression assays
  effect of AEB071 treatment under antibody blockade of Nrp1 and Lag3: reduced the effect
[1]; AEB071 vs DMSO treated human Tregs
  number of proteins with significant alterations in phosphorylation sites: 72
[1]; AEB071 vs DMSO, b140: RLTPR serine 1226, PKC-theta consensus site
  phosphorylation of adaptor molecule that links PKC-θ to vimentin (RLTPR): reduced phosphorylation
Tcon-APC interactions
  Tcon displacement from APCs: significantly increased
  Tcon velocity: significantly increased
Tregs [2]; time 0-19 min
  baseline Treg oxygen consumption rate (OCR): significantly increased
Tregs [2]; time 53-70 min
  maximal Treg OCR: significantly increased
Splenic Tregs
  expression of Lag3: augmented expression
  expression of Nrp1: augmented expression
Tregs [3]; [5]
  surface expression of Lymphocyte activation gene 3 (Lag3): significantly increased; also recorded: augmented expression
  surface expression of Neuropilin-1 (Nrp1): significantly increased; also recorded: augmented expression
Tregs [3]; AEB071 treatment
  GI homing molecule expression: did not increase
Acute GVHD; Tregs treated 30 minutes with 10 μM AEB071 vs DMSO-treated Tregs
  GVHD severity: significantly better
Acute GVHD; Tregs treated 30 minutes with 10 μM AEB071 vs DMSO-treated Tregs, p=0.0036
  recipient survival / GVHD mortality: significantly increased recipient survival; also recorded: significantly better
Acute GVHD; mice given AEB071 treated Tregs vs DMSO treated Tregs
  Tcon proliferation on D4 after transplant: significant reduction
[4]; AEB071 treatment, stated by comparison with vimentin siRNA
  PKC-θ auto-phosphorylation at Ser676: significantly reduced
[4]; [6]
  Akt phosphorylation at serine 473 (mTORC2-specific site): reduced
  Akt phosphorylation at threonine 308 (mTORC1-specific site): unaltered
  phosphorylation of mTORC2 target FoxO3a: reduced phosphorylation
PKC-θ/vimentin; AEB071-pre-treated Tregs after activation vs control
  interaction / overlap between vimentin and PKC-θ: reduced the interaction
PKC-θ/vimentin; AEB071-pre-treated Tregs after anti-CD3/CD28 activation vs control
  PKC-θ localization: dispersed throughout the cell

From US10993959B2, “Methods and compositions for increasing the suppressive function of regulatory T-cells (Tregs)” (Regents of the University of Minnesota, priority 2015, dated 2021)
